Peptide text beside a SMILES is read from it. * marks the point of attachment. Palmitoyl = CCCCCCCCCCCCCCCC(=O)*
Legend:
PAR1 = target: T1, PAR1 (Homo sapiens, UniProt P25116); experiment: Migration of primary patient lung tumor cells; assay type: cell-based; parameters: endogenous in cells; host or cells: A549, HOP62, H1299, H522, H226, HOP92 lung carcinoma lines
T1 sequence (P25116 22-425): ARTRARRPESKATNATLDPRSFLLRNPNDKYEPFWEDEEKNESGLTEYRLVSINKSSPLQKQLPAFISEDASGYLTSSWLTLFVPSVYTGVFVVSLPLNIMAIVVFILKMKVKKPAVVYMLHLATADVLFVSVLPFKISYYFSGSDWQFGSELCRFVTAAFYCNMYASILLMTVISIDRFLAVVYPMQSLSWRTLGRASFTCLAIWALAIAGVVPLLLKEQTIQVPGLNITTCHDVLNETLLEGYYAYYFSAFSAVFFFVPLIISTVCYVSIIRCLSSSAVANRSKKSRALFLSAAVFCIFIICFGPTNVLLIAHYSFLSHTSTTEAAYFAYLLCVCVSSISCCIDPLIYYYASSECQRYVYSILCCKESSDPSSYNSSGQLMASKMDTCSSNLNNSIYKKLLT
Experimental: FIG. 12 illustrates that PAR1 is a promigratory factor in lung cancer cells. (A-F): Inhibition of lung cancer migration in adenocarcinomas A549, HOP62, H1299 and H522, H226 squamous, and HOP92 large cell using PAR1 pepducins. Pepducins at […] (P1pal-7, P1pal-10S, P1pal-i1-11, or negative control P1pal-19EE) were added to the lower well. (G): Cell from primary lung tumors or nonmalignant control were pretreated with PAR1 pepducins and migration was determined (*P<0.05, **P<0.01).
Further experiments were carried out to determine whether migration of the primary carcinoma cell lines isolated from lung tumors could be inhibited by PAR1 pepducins (FIG. 12G). […] Likewise, the RWJ-56110 small-molecule antagonist of PAR1 (Andrade-Gordon, et al., Proc. Natl Acad Sci USA, 96 (1999), pp. 12257-12262) suppressed up to 55% of the migration of primary lung tumor cells toward NIH-3T3 conditioned media. The PAR1 antagonist pepducin P1pal-7 and P1pal-i1-11 had no effect on the low-expressing PAR1 cell line derived from benign lung tissue, which migrated poorly (FIG. 12G).

VEGF-A production = experiment: Thrombin-dependent VEGF-A production in A549 cells (ELISA); assay type: cell-based, human; details: A549, 18 hours thrombin treatment
Experimental: (§1) FIG. 13 illustrates that monotherapy with PAR1-i3 pepducins inhibits tumor progression of A549 xenografts. (A) and (B): A549 mice treated with vehicle, P1pal-7, P1pal-i1-11, P1pal-10S, X1/2-i1, X1/2-i3, or Avastin. Each time point represents the mean±SE. (C): Final tumor volume at the completion of the experiment was calculated as a percentage of untreated vehicle control. (D): Serum-starved A549 adenocarcinoma cells were pretreated with P1pal-7, P1pal-10S, P1pal-i1-11, vehicle, or PD98059 and stimulated with thrombin. VEGF production was assessed by enzyme-linked immunosorbent assay. Data are expressed as mean±SD (*P<0.05, **P<0.01).
Because the i3-based P1pal-7 pepducin had similar efficacy as Avastin in suppressing lung tumor growth of A549 xenografts, VEGF-A production was measured in the A549 tumor cells after 18 hours thrombin treatment. […] Unlike in ovarian cancer, no increase was found in PAR1-mediated IL-8 production in A549 cells, consistent with the observed lack of efficacy of CXCR1/2 pepducins in the A549 xenograft models. These xenograft data provide support for the role of a novel PAR1-ERK1/2-VEGF paracrine pathway that is an effective therapeutic target in the A549 adenocarcinoma lung cancer model.

A549 xenografts = assay type: in vivo, mouse
Experimental: as §1
PAR1 expression level is correlated with reduced survival of patients with NSCLC. To define the relative importance of PAR1 in lung tumor progression, in vivo mouse models were used. […] An A549 lung adenocarcinoma xenograft model in nude mice was used to evaluate monotherapy with P1pal-7, P1pal-10S, P1pal-i1-11, or the VEGF antagonist Avastin.

[1] = Pharmacokinetics of PAR1 pepducins in CF-1 mice, plasma LC/MS/MS; assay type: in vivo, mouse; parameters: Peak plasma level: unit not given here; details: 10 mg/kg s.c.
Experimental: FIG. 14 illustrates pharmacokinetics of PAR1 pepducins. (A): CF-1 mice were injected subcutaneously with P1pal-7 (3 mg/kg, open circles), P1pal-7 (10 mg/kg, closed circles), P1pal-10S (10 mg/kg, gray circles), or P1pal-i1-11 (10 mg/kg, open squares) in 20% dimethyl sulfoxide and blood was collected at indicated time points (n=3). Pepducin levels in plasma were quantified with LC/MS/MS. (B): Daily (D1 to D6) plasma levels of P1pal-7 after subcutaneous injection of 10 mg/kg P1pal-7 were measured at 1 hour (open circles) and 24 hours (open squares).
Pharmacokinetics of plasma levels of P1pal-7, P1pal-10S, and P1pal-i1-11 at 30 minutes, and at 1, 2, 4, 6, 8, and 16 hours was measured by LC/MS/MS to determine steady-state pepducin drug levels and the rate of elimination from mice. Subcutaneous injections of P1pal-7 (3 mg/kg or 10 mg/kg) into wild-type CF-1 mice (25 to 30 g) was followed by blood collection at various time points from the vena cava. […] Residual P1pal-7 levels were 10 nmol/L at the 16-hour time point. After the 4-hour plateau, the elimination rate was linear from 4 to 16 hours. The peak plasma level of 3 mg/kg P1pal-7 reached 0.6 μmol/L at 2 hours and elimination was linear between 2 hours and 16 hours. P1pal-10S (10 mg/kg) gave similar peak plasma level of 1.0 μmol/L as P1pal-7 (10 mg/kg) at 1 hour.
Lastly, the peak plasma level of P1pal-7 (10 mg/kg) was measured before and 1 hour after once-daily subcutaneous injection over 6 days to determine whether the peak plasma levels were consistent on daily administration.

Effect on migration of low-expressing PAR1 cell line derived from benign lung tissue (PAR1): no effect
Clearance / plasma half-life in words [1]: sustained plasma half-life
Peak plasma level ([1]; between 0.5 and 8 hours): 5.0
Compound: CCCCCCCCCCCCCCCC(=O)N[C@H](C(=O)N[C@@H](CC(C)C)C(=O)N[C@@H](CCCCN)C(=O)N[C@@H](CCSC)C(=O)N[C@@H](CCCCN)C(=O)N[C@H](C(=O)N[C@@H](CCCCN)C(=O)N[C@@H](CCCCN)C(=O)N1CCC[C@H]1C(=O)N[C@@H](C)C(=O)N[C@H](C(N)=O)C(C)C)C(C)C)[C@@H](C)CC [P1pal-i1-11] (Palmitoyl-ILKMKVKKPAV-NH2)
Effect on thrombin-dependent VEGF-A production (VEGF-A production): did not inhibit
Early tumor growth blockade (A549 xenografts; by day 20): significant blockade of tumor growth
Inhibition of tumor progression/growth (final tumor volume vs vehicle) (A549 xenografts; monotherapy, nude mice): did not inhibit the long-term growth

Reference: patent US10913781B2, “Pepducin design and use” (Tufts Medical Center, Inc., priority 2011, dated 2021)
